Results from patent EP4685142A1, “TRIAZINE COMPOUND AND USE THEREOF” (Chengdu Zenitar Biomedical Technology Co., Ltd., priority 2023, dated 2024).

How the values were obtained:
[1] = tested on: IL-1β in human PBMC cells; assay: Inhibitory activity on IL-1β in human PBMC cells (LPS + Nigericin, ELISA); assay type: cell-based; details: human PBMC, LPS 1 µg/mL 3 h, drug 40 min, Nigericin 10 µM 40 min, IL-1β ELISA; read-out: IC50
Experimental: 2. Determination of inhibitory activity of compounds on IL-1β in human PBMC cells
Human peripheral blood mononuclear cells (PBMCs) were taken and cultured overnight in RPMI 1640 culture medium containing 10% FBS and antibiotics before stimulation. On the second day, the culture medium was replaced with a serum-reduced culture medium, the grown cells were stimulated for 3 h with LPS at a working concentration of 1 µg/mL, stimulated for 40 min with a drug, and then stimulated for 40 min with Nigericin at a concentration of 10 µM, the cell supernatant was harvested, and the yield of IL-1β was detected by ELISA.
The experimental results are shown in Table 3: Table 3 Inhibitory effect of compounds on IL-1β in PBMC cells

LPS-induced mice = assay: LPS-induced mouse model, survival; assay type: in vivo, Balb/c mice; details: for 72h Survival rate: 1 h before 10 mg/kg LPS i.p.
NLRP3 inflammasome = molecular target: T1, NLRP3 inflammasome (Homo sapiens, UniProt Q96P20); assay: Inhibitory activity of NLRP3 inflammasome in human monocytes (THP-1 cells, LPS + Nigericin, IL-1β ELISA); assay type: cell-based; details: THP-1 cells, PMA, LPS 1 µg/mL 3 h, drug 40 min, Nigericin 10 µM 40 min, IL-1β ELISA; read-out: IC50
T1 construct: host or cells: THP-1 cells
Method in brief: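 THP-1 cells differentiated overnight with 10 µM PMA at 37°C and 5% CO2, then primed 3 h with 1 µg/mL LPS in Opti-MEM. Compound applied for 40 min, followed by 40 min with 10 µM nigericin. IL-1β in supernatant measured by ELISA.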

[2] = Pharmacokinetic evaluation in Balb/c mice; assay type: in vivo; details: male, Balb/c, mouse, in vivo, po, 5 mg/kg
Source text: 4. Pharmacokinetic evaluation of compounds in Balb/c mice
Experimental purpose: to understand pharmacokinetic properties of the compounds.
Experimental basis: Technical Guidelines for Nonclinical Pharmacokinetic Studies of Chemical Drugs, 2014.
Experimental protocol: the pharmacokinetic properties of the compounds were investigated via intravenous administration and intragastric administration in Balb/c mice.
The blood drug concentration was quantitatively analyzed by LC-MS/MS, and pharmacokinetic parameters were calculated, such as peak concentration (Cmax), area under the concentration-time curve (AUC(0-t)), half-life (T1/2), clearance (CL), volume of distribution at steady state (Vdss), and bioavailability (F).
The results of pharmacokinetic evaluation are shown in Table 5 below: Table 5 Pharmacokinetic test results of compounds in Balb/c mice

[3] = molecular target: T2, hERG potassium ion channel (Homo sapiens, UniProt Q12809); details: human
Experimental: (§1) Inhibition experiment of compounds on hERG potassium ion channel
(§2) Cell culture and treatment: CHO cells stably expressing hERG were cultured in cell culture flasks and incubated in a 5% CO2 incubator at 37°C. When a cell density reached 60%-80%, the cell culture medium was aspirated, washed once with PBS, and then digested with Detachin. After digestion, the grown cells were neutralized in the cell culture medium, and then centrifuged, the supernatant was aspirated, the cell culture medium was added again to resuspend the grown cells, and the cell density was adjusted to 2-5×10^6 cells/mL for later use.
(§3) Compound preparation: the compound stock solution was diluted in 100% DMSO, that is, 10 µL compound stock solution was serially diluted in 20 µL DMSO by 3 folds to obtain six concentrations. Six concentrations of the compound (4 µL for each concentration) were diluted in 396 µL extracellular fluid by 100 folds to obtain six intermediate concentrations. Six intermediate concentrations of the compound (80 µL for each concentration) were diluted in 320 µL extracellular fluid by 5 folds to obtain final concentrations to be tested. […] DMSO in a final test concentration was not more than 0.2%, and DMSO at this concentration had no effect on the hERG potassium channel. The entire dilution process for compound preparation was performed using Bravo instrument.
(§4) Electrophysiological recording process: the processes of single-celled high-impedance sealing and whole-cell mode formation were all automatically completed by Qpatch instrument, under the whole-cell recording mode, the cells were clamped at -80 mV, before 5-second + 40 mV depolarization stimulus, the cells were given 50-millisecond - 50 mV pre-voltage, followed by repolarization to -50 mV for 5 seconds, and then returning to -80 mV. The voltage stimulus was given every 15 seconds, after 2 minutes of recording, extracellular fluid was recorded for 5 min, and then a drug was administrated, started from a lowest test concentration, each test concentration of the compound was given for 2.5 minutes, after all concentrations were given consecutively, a positive control compound Cisapride (3 µM) was given. At least 3 cells were tested for each concentration (n≥3).
(§5) Data processing: data analysis and processing were performed using GraphPad Prism 5.0 and Excel software. IC50 values of the compounds were calculated by fitting with the following equation using GraphPad Prism 5 software: Y = Bottom + (Top−Bottom)/(1+10^(∧)((LogIC50−X)*HillSlope)); [formula] where X is the Log value of the test sample concentration, Y is an inhibition percentage at a corresponding concentration, and Bottom and Top are the minimum and maximum inhibition percentages, respectively.

[4] = In vivo brain-to-plasma ratio in mice; details: for Brain: male mice, oral 10 mg/kg
[5] = molecular target: T2, hERG potassium ion channel; assay: Inhibition of hERG potassium ion channel (CHO cells stably expressing hERG, Qpatch)
Experimental: as §1, §2, §3, §4, §5

[6] = 50 mg/kg, First cage (6 mice for Compound 3, 5 mice for Compound 4)
[7] = 50 mg/kg, Second cage (6 mice for Compound 3, 5 mice for Compound 4)
[8] = male, mouse, brain/plasma, po, 10 mg/kg
[9] = male, mouse, plasma, po, 10 mg/kg

T2 sequence (Q12809 whole entry): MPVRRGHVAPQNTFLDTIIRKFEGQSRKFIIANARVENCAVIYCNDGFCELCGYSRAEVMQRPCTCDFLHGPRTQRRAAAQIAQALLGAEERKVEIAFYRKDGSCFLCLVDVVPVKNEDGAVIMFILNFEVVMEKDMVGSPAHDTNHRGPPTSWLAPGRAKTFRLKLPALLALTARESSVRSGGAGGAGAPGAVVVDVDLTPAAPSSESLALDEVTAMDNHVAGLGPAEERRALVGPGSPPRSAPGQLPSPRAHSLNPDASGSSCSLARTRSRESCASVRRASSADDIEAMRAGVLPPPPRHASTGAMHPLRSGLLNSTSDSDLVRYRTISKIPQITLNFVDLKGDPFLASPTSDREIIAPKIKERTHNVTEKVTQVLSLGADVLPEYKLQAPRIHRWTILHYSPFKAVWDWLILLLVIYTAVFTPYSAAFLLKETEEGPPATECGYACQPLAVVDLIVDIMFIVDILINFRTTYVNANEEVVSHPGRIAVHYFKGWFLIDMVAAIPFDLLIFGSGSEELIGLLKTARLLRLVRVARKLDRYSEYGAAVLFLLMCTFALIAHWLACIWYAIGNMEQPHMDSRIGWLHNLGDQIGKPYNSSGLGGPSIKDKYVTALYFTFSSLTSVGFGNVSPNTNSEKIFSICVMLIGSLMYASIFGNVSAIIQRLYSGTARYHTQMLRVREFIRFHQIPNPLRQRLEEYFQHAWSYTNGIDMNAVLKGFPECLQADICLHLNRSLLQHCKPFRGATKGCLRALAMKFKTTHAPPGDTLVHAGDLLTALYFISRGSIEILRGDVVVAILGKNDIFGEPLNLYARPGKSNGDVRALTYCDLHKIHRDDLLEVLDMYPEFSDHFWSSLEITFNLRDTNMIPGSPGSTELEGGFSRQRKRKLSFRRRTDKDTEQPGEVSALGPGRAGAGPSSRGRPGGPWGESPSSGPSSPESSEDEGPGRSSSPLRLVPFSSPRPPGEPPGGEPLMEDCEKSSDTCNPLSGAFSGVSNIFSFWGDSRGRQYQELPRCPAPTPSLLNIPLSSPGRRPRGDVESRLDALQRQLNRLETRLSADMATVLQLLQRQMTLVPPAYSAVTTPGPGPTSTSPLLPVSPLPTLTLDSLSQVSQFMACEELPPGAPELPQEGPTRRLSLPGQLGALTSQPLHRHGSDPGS
T1 sequence (Q96P20 whole entry): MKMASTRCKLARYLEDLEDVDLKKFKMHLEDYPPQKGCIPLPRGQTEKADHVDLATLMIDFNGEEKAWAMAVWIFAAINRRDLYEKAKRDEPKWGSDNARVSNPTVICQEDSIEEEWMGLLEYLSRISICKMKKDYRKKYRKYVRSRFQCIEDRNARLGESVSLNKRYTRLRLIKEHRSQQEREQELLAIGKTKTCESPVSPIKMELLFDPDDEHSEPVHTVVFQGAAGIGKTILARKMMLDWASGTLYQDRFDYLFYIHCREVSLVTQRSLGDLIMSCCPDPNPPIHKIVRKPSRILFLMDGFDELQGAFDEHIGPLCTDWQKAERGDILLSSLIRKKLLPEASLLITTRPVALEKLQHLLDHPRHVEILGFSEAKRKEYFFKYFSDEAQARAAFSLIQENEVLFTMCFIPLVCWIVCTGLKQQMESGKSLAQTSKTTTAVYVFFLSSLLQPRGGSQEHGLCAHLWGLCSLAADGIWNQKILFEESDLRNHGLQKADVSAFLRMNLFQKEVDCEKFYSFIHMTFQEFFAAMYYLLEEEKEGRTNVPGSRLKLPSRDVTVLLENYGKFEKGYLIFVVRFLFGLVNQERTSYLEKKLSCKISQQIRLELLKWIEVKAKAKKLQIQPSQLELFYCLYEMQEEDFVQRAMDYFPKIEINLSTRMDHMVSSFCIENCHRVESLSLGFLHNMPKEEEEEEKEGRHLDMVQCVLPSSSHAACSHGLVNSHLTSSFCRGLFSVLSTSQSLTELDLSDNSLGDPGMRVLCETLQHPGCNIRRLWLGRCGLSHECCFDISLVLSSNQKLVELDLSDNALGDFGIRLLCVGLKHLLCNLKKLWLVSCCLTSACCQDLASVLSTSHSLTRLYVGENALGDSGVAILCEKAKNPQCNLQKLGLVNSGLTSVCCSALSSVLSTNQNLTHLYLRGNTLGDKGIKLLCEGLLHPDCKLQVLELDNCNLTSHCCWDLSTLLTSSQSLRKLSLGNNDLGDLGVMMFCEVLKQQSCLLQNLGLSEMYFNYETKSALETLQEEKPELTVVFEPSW

Compound: CC(C)(O)c1coc(S(=O)(=O)NC(=O)Nc2c3c(cc4c2CCC4)CCC3)c1 [MCC950, reference compound]
- IC50 [1]: 7.81 nM
- 72h Survival rate (LPS-induced mice; 25 mg/kg oral): 60%
- survival status of mice (mice alive) 12h (LPS-induced mice; 25 mg/kg, First cage (5 mice)): 5
- survival status of mice (mice alive) 24h (LPS-induced mice; 25 mg/kg, First cage (5 mice)): 5
- survival status of mice (mice alive) 36h (LPS-induced mice; 25 mg/kg, First cage (5 mice)): 4
- survival status of mice (mice alive) 48h (LPS-induced mice; 25 mg/kg, First cage (5 mice)): 4
- survival status of mice (mice alive) 72h (LPS-induced mice; 25 mg/kg, First cage (5 mice)): 4
- survival status of mice (mice alive) 12h (LPS-induced mice; 25 mg/kg, Second cage (5 mice)): 5
- survival status of mice (mice alive) 24h (LPS-induced mice; 25 mg/kg, Second cage (5 mice)): 4
- survival status of mice (mice alive) 36h (LPS-induced mice; 25 mg/kg, Second cage (5 mice)): 4
- survival status of mice (mice alive) 48h (LPS-induced mice; 25 mg/kg, Second cage (5 mice)): 2
- survival status of mice (mice alive) 72h (LPS-induced mice; 25 mg/kg, Second cage (5 mice)): 2

Compound: CN1CCC[C@@H](Nc2nnc(-c3ccc4sccc4c3O)n(C)c2=O)C1 [Compound 4, (R)-3-(4-hydroxybenzo[b]thiophen-5-yl)-4-methyl-6-((1-methylpiperidin-3-yl)amino)-1,2,4-tr iazin-5(4H)-ketone]
- IC50 (NLRP3 inflammasome): 4.21 nM
- IC50 [1]: 1.42 nM
- AUC(0-t) [2]: 16900 ng·h/mL
- Cmax [2]: 4610 ng/mL
- half-life [2]: 3 h
- 72h Survival rate (LPS-induced mice; 25 mg/kg oral): 80%
- survival status of mice (mice alive) 12h (LPS-induced mice; 25 mg/kg, First cage (5 mice)): 5
- survival status of mice (mice alive) 24h (LPS-induced mice; 25 mg/kg, First cage (5 mice)): 5
- survival status of mice (mice alive) 36h (LPS-induced mice; 25 mg/kg, First cage (5 mice)): 5
- survival status of mice (mice alive) 48h (LPS-induced mice; 25 mg/kg, First cage (5 mice)): 5
- survival status of mice (mice alive) 72h (LPS-induced mice; 25 mg/kg, First cage (5 mice)): 5
- survival status of mice (mice alive) 12h (LPS-induced mice; 25 mg/kg, Second cage (5 mice)): 5
- survival status of mice (mice alive) 24h (LPS-induced mice; 25 mg/kg, Second cage (5 mice)): 5
- survival status of mice (mice alive) 36h (LPS-induced mice; 25 mg/kg, Second cage (5 mice)): 4
- survival status of mice (mice alive) 48h (LPS-induced mice; 25 mg/kg, Second cage (5 mice)): 4
- survival status of mice (mice alive) 72h (LPS-induced mice; 25 mg/kg, Second cage (5 mice)): 3
- 72h Survival rate (LPS-induced mice; 50 mg/kg oral): 100%
- survival status of mice (mice alive) 12h (LPS-induced mice; [6]): 5
- survival status of mice (mice alive) 24h (LPS-induced mice; [6]): 5
- survival status of mice (mice alive) 36h (LPS-induced mice; [6]): 5
- survival status of mice (mice alive) 48h (LPS-induced mice; [6]): 5
- survival status of mice (mice alive) 72h (LPS-induced mice; [6]): 5
- survival status of mice (mice alive) 12h (LPS-induced mice; [7]): 5
- survival status of mice (mice alive) 24h (LPS-induced mice; [7]): 5
- survival status of mice (mice alive) 36h (LPS-induced mice; [7]): 5
- survival status of mice (mice alive) 48h (LPS-induced mice; [7]): 5
- survival status of mice (mice alive) 72h (LPS-induced mice; [7]): 5
- inhibitory effects on the hERG potassium ion channel (conclusion in words) [3]: Conclusion: compounds 3, 4, 5, 9, 16, 17, 24, 30, 40, 41, 42, 43, 54 and others have weak inhibitory effects on the hERG potassium ion channel, having weaker inhibitory effect than the reference compound Ref-1.
- Brain ([4]; 1 h): 1780 ng/g
- Brain ([4]; 6 h): 335 ng/g
- Kp at 1 h [4, 8]: 0.53
- Kp at 6 h [4, 8]: 0.25
- concentration at 1 h [4, 9]: 3340 ng/mL
- concentration at 6 h [4, 9]: 1370 ng/mL
- 20 uM Inhibition ratio [5]: 14.87%
